Laboratory results: patent US8394774B2, “Pesticidal compositions” (Dow AgroSciences, LLC., priority 2009, dated 2013)

Key:
[1] = test system: beet armyworm (BAW; Spodoptera exigua: Lepidoptera); assay: 128-well diet tray assay on beet armyworm (BAW 50); assay type: in vivo; conditions: 144 h, percent mortality, 128-well diet assay, 50 ug/cm^2 of test compound on diet, second instar BAW larvae, six days, 25° C., average of eight wells, read-out: BAW 50
Method: (§1) Bioassays on beet armyworm (BAW; Spodoptera exigua: Lepidoptera) were conducted using either a 96-well microtiter plate-based high throughput (HTS) bioassay or a 128-well diet tray assay. The HTS assay is based on a modification of Lewer et al. J. Nat. Prod. 2006, 69, 1506. BAW eggs were placed on top of artificial diet (100 μL) in each well of a 96-well microtiter plate. The diet was pretreated with test compounds (12 μg dissolved in 30 μL of DMSO-acetone-H2O mixture) layered on top of the diet using a liquid handling system and then allowed to dry for several hours. Infested plates were then covered with a layer of sterile cotton batting and the plate lid, and then held in the dark at 29° C. Mortality was recorded at 6 days post-treatment. Each plate had six replicates. The percent mortality was calculated from the average of the six replicates. In the case of the 128-well diet assay, three to five second instar BAW larvae were placed in each well (3 mL) of the diet tray that had been previously filled with 1 mL of artificial diet to which 50 ug/cm^2 of the test compound (dissolved in 50 μL of 90:10 acetone-water mixture) had been applied (to each of eight wells) and then allowed to dry. Trays were covered with a clear self-adhesive cover, and held at 25° C., 14:10 light-dark for six days. Percent mortality was recorded for the larvae in each well; activity in the eight wells was then averaged. In Table 4, under both the BAW HTS and BAW 50 headings, an “A” means that the compound was tested and at least 50 percent mortality was observed whereas, “B” means that either (1) the compound was tested and less than 50 percent mortality was observed or (2) the compound was not tested.

[2] = test system: beet armyworm (BAW; Spodoptera exigua: Lepidoptera); assay: 96-well microtiter plate-based high throughput (HTS) bioassay on beet armyworm (BAW HTS); assay type: in vivo; conditions: 144 h, percent mortality, 96-well HTS, 12 μg test compound on diet, BAW eggs, 6 days post-treatment, 29° C., average of six replicates, read-out: BAW HTS
Method: as §1

**Q.** `CCO[C@@H]1[C@@H](OC)[C@H](C)O[C@@H](O/N=C/c2ccc(/C=C/c3ccc(OC(F)(F)F)cc3)cc2)[C@@H]1OC` [Compound 5, 4-[(E)-2-(4-Trifluoromethoxyphenyl)-vinyl]-benzaldehyde O-((2S,3R,4R,5S,6S)-4-ethoxy-3,5-dimethoxy-6-methyl-tetrahydropyran-2-yl)-oxime] was tested. Which pest or weed control at 50 µg/cm2, 50 µg/cm2 [1] did it give?
**A.** > 50%

**Q.** What about the pest or weed control at 12 µg/well, 12 µg/well [2] of the same compound?
**A.** < 50%
